{"source": "patent US8574831B2", "about": "“Mutational profiles in HIV-1 reverse transcriptase correlated with phenotypic drug resistance” (Virco N.V., priority 2000, dated 2013)", "system": "HIV with mutations in the HIV protease sequence", "experiment": "Phenotypic fold resistance to protease inhibitors, protease mutations 84A/84L/84C/54M/54L/54V in a background (Examples 8-13)", "assay_type": "cell-based, HIV-1", "procedure": "As is the case with the genotyping assays, the recombinant virus assay starts with the amplification of viral target sequences by means of PCR. The amplicons are incorporated into a proviral laboratory clone with sequences homologous to those present in the amplicon deleted. This generates a stock of chimeric viruses. The viruses are tested for their ability to grow in the presence of different concentrations of drugs. Results are obtained by calculating IC50 values for each inhibitor and by reporting the results as IC50 values, expressed in μM concentrations, or by computing the ratio of the IC50 values found for the chimeric virus to the IC50 values found for a wild type susceptible laboratory virus tested in parallel. In the latter case, resistance is expressed as “fold-resistance” compared to a wild-type susceptible HIV-1 strain. In order to meet the need for high-volume testing and a short turn-around time for an individual test, the latest generation of phenotyping assays has undergone further modifications. The use of reporter gene systems for susceptibility testing allows the implementation of laboratory automation and standardization. See Pauwels, et al., J. Virol. Methods 20, 309-321 (1998); Paulous, S., et al., International Workshop on HIV Drug Resistance, Treatment Strategies and Eradication, St. Petersburg, Fla., USA. Abstr. 46 (1997); and Deeks, S. G., et al., 2nd International Workshop on HIV Drug Resistance and Treatment Strategies, Lake Maggiore, Italy. Abstr. 53 (1998).\nThe ANTIVIROGRAM® assay (Virco) (WO 97/27480) is based on homologous recombination of patient derived HIV-1 gag/PR/RT sequences into a proviral HIV-1 clone correspondingly deleted for the gag/PR/RT sequences. See Pauwels, et al., J. Virol. Methods 20, 309-321 (1998). A similar assay (Phenosense ViroLogic) is based on enzymatic ligation of patient-derived PR/RT sequences into a correspondingly deleted proviral vector carrying an indicator gene, luciferase, inserted in the deleted HIV-1 envelope gene. See Deeks, S. G., et al., 2nd International Workshop on HIV Drug Resistance and Treatment Strategies, Lake Maggiore, Italy. Abstr. 53 (1998). Hertogs et al. Antimicrob. Agents Chemother. 44(3) 568-573 (2000) the disclosures of which are herein incorporated by reference.\nThe methods of monitoring HIV-1 drug resistance, may also be used in combination with phenotypic drug resistance testing of viral isolates. For example, in one embodiment, a phenotypic test is utilized that is based upon the construction of chimeric HIV-1 strains composed of the protease (PR) and reverse transcriptase (RT) gene sequences which are isolated and amplified from the patient viral RNA. These strains may subsequently be recombined inside CD4+ T cells with a standard laboratory isogenic (HXB2) HIV-1 DNA construct from which the PR/RT gene sequences were deleted. The recombinant strains may then be grown in the presence of the above-mentioned antiviral drugs and the susceptibility of the viral isolates may be expressed as fold-change value of the IC50 of the drug on the patient isolates over the IC50 of the drug on a wild-type laboratory reference strain."}
{"smiles": "CC(C)(C)NC(=O)[C@@H]1CN(Cc2cccnc2)CCN1C[C@@H](O)C[C@@H](Cc1ccccc1)C(=O)N[C@H]1c2ccccc2C[C@H]1O", "note": "[Indinavir, indinavir]", "values": [{"measurement": "mean fold increase in resistance", "setting": "Table 9 #1, protease genotype WT", "value": 0.9, "unit": "fold"}, {"measurement": "mean fold increase in resistance", "setting": "Table 9 #2, protease genotype 10I", "value": 0.7, "unit": "fold"}, {"measurement": "mean fold increase in resistance", "setting": "Table 9 #3, protease genotype 46I", "value": 0.6, "unit": "fold"}, {"measurement": "mean fold increase in resistance", "setting": "Table 9 #4, protease genotype 46I + 84V", "value": 2.6, "unit": "fold"}, {"measurement": "mean fold increase in resistance", "setting": "Table 9 #5, protease genotype 46I + 84A", "value": 26.8, "unit": "fold"}, {"measurement": "mean fold increase in resistance", "setting": "Table 9 #6, protease genotype 10I + 46I", "value": 2.9, "unit": "fold"}, {"measurement": "mean fold increase in resistance", "setting": "Table 9 #7, protease genotype 10I + 46I + 84V", "value": 2.4, "unit": "fold"}, {"measurement": "mean fold increase in resistance", "setting": "Table 9 #8, protease genotype 10I + 46I + 84A", "value": 33.4, "unit": "fold"}, {"measurement": "mean fold increase in resistance", "setting": "Table 9 #9, protease genotype 10L/I + 46I + 84A", "value": 44.5, "unit": "fold"}, {"measurement": "mean fold increase in resistance", "setting": "Table 9 #10, protease genotype 10I + 46I + 84A", "value": 26, "unit": "fold"}, {"measurement": "mean fold increase in resistance", "setting": "Table 9 #11, protease genotype 46I + 71V", "value": 3.7, "unit": "fold"}, {"measurement": "mean fold increase in resistance", "setting": "Table 9 #12, protease genotype 46I + 71V + 84V/I", "value": 3.1, "unit": "fold"}, {"measurement": "mean fold increase in resistance", "setting": "Table 9 #13, protease genotype 46I + 71V + 84A", "value": 56.5, "unit": "fold"}, {"measurement": "mean fold increase in resistance", "setting": "Table 9 #14, protease genotype 10F + 46I + 71V", "value": 22.2, "unit": "fold"}, {"measurement": "mean fold increase in resistance", "setting": "Table 9 #15, protease genotype 10I + 46I + 71V + 84V", "value": 50.5, "unit": "fold"}, {"measurement": "mean fold increase in resistance", "setting": "Table 9 #16, protease genotype 10I + 46I + 71V + 84A", "value": 45.9, "unit": "fold"}, {"measurement": "mean fold increase in resistance", "setting": "Table 9 #17, protease genotype 10V + 46I + 71T + 84A", "value": 57.9, "unit": "fold"}, {"measurement": "mean fold increase in resistance", "setting": "Table 9 #18, protease genotype 10I + 46I + 71V + 77I", "value": 2.2, "unit": "fold"}, {"measurement": "mean fold increase in resistance", "setting": "Table 9 #19, protease genotype 10I + 46I + 71V + 77I + 84V", "value": 2.2, "unit": "fold"}, {"measurement": "mean fold increase in resistance", "setting": "Table 9 #20, protease genotype 10I + 46I + 71V + 77I + 84A", "value": 57.9, "unit": "fold"}, {"measurement": "mean fold increase in resistance", "setting": "Table 9 #21, protease genotype 10I + 33L/I + 46I + 71V + 77V/I + 84A", "value": 31.4, "unit": "fold"}, {"measurement": "mean fold increase in resistance", "setting": "Table 10 #1, protease genotype 10I + 36I + 71V", "value": 1.4, "unit": "fold"}, {"measurement": "mean fold increase in resistance", "setting": "Table 10 #2, protease genotype 10I + 36I + 71I + 84V", "value": 1.0, "unit": "fold"}, {"measurement": "mean fold increase in resistance", "setting": "Table 10 #3, protease genotype 10I + 36I + 71I + 84L", "value": 3.7, "unit": "fold"}, {"measurement": "mean fold increase in resistance", "setting": "Table 11 #1, protease genotype WT", "value": 0.9, "unit": "fold"}, {"measurement": "mean fold increase in resistance", "setting": "Table 11 #2, protease genotype 84V", "value": 0.7, "unit": "fold"}, {"measurement": "mean fold increase in resistance", "setting": "Table 11 #3, protease genotype 84C", "value": 2.7, "unit": "fold"}, {"measurement": "mean fold increase in resistance", "setting": "Table 11 #4, protease genotype 10I", "value": 0.7, "unit": "fold"}, {"measurement": "mean fold increase in resistance", "setting": "Table 11 #5, protease genotype 10I + 84V", "value": 1.8, "unit": "fold"}, {"measurement": "mean fold increase in resistance", "setting": "Table 11 #6, protease genotype 10I + 84C", "value": 4.3, "unit": "fold"}, {"measurement": "mean fold increase in resistance", "setting": "Table 11 #7, protease genotype 77I", "value": 0.4, "unit": "fold"}, {"measurement": "mean fold increase in resistance", "setting": "Table 11 #8, protease genotype 77I + 84V", "value": 2.5, "unit": "fold"}, {"measurement": "mean fold increase in resistance", "setting": "Table 11 #9, protease genotype 77I + 84C", "value": 3.1, "unit": "fold"}, {"measurement": "mean fold increase in resistance", "setting": "Table 11 #10, protease genotype 77I + 84C", "value": 3.2, "unit": "fold"}, {"measurement": "mean fold increase in resistance", "setting": "Table 11 #11, protease genotype 10I + 24I + 36I + 46I + 71V + 84C", "value": 7.5, "unit": "fold"}, {"measurement": "Fold change in IC50", "setting": "Table 12, V19263, genotype 77I", "value": 0.4, "unit": "fold"}, {"measurement": "Fold change in IC50", "setting": "Table 12, V20160, genotype WT", "value": 0.9, "unit": "fold"}, {"measurement": "Fold change in IC50", "setting": "Table 12, V021667, genotype 10I", "value": 0.7, "unit": "fold"}, {"measurement": "Fold change in IC50", "setting": "Table 12, V030496, genotype 10I + 77I", "value": 0.4, "unit": "fold"}, {"measurement": "Fold change in IC50", "setting": "Table 12, V048869, genotype 10I + 54M + 77I + 90M", "value": 7.1, "unit": "fold"}, {"measurement": "Fold change in IC50", "setting": "Table 12, V048872, genotype 33F + 54M + 77I + 90M", "value": 3.2, "unit": "fold"}, {"measurement": "Fold change in IC50", "setting": "Table 12, V048873, genotype 33F + 54M + 77I + 90M", "value": 1.7, "unit": "fold"}, {"measurement": "Fold change in IC50", "setting": "Table 12, V048877, genotype 10I + 33F + 77I + 90M", "value": 2.9, "unit": "fold"}, {"measurement": "Fold change in IC50", "setting": "Table 12, V048878, genotype 10I + 33F + 54M + 71V + 77I + 90M", "value": 5.2, "unit": "fold"}, {"measurement": "Fold change in IC50", "setting": "Table 12, V048879, genotype 10I + 33F + 54M + 71V + 77I + 90M", "value": 6.5, "unit": "fold"}, {"measurement": "Fold change in IC50", "setting": "Table 12, V048880, genotype 10I + 33F + 77I + 90M", "value": 1.3, "unit": "fold"}, {"measurement": "Fold change in IC50", "setting": "Table 12, V052940, genotype 71V", "value": 0.7, "unit": "fold"}, {"measurement": "Fold change in IC50", "setting": "Table 12, V052942, genotype 10I + 71V", "value": 0.6, "unit": "fold"}, {"measurement": "Fold change in IC50", "setting": "Table 12, V052943, genotype 10I + 90M", "value": 0.5, "unit": "fold"}, {"measurement": "Fold change in IC50", "setting": "Table 12, V052944, genotype 10I + 90M", "value": 0.5, "unit": "fold"}, {"measurement": "Fold change in IC50", "setting": "Table 12, V052945, genotype 77I + 90M", "value": 0.6, "unit": "fold"}, {"measurement": "Fold change in IC50", "setting": "Table 12, V052946, genotype 71V + 90M", "value": 0.9, "unit": "fold"}, {"measurement": "Fold change in IC50", "setting": "Table 12, V052947, genotype 10I + 77I + 90M", "value": 2.9, "unit": "fold"}, {"measurement": "Fold change in IC50", "setting": "Table 12, V052948, genotype 10I + 71V + 90M", "value": 8.6, "unit": "fold"}, {"measurement": "Fold change in IC50", "setting": "Table 12, V052949, genotype 10I + 71V + 77I + 90M", "value": 2.7, "unit": "fold"}, {"measurement": "Fold change in IC50", "setting": "Table 12, V052950, genotype 33F", "value": 0.6, "unit": "fold"}, {"measurement": "Fold change in IC50", "setting": "Table 12, V052951, genotype 33F + 77I", "value": 0.4, "unit": "fold"}, {"measurement": "Fold change in IC50", "setting": "Table 12, V052953, genotype 10I + 33F + 77I", "value": 0.8, "unit": "fold"}, {"measurement": "Fold change in IC50", "setting": "Table 12, V052954, genotype 33F + 77I + 90M", "value": 1.7, "unit": "fold"}, {"measurement": "Fold change in IC50", "setting": "Table 12, V052955, genotype 33F + 71V + 90M", "value": 5.3, "unit": "fold"}, {"measurement": "Fold change in IC50", "setting": "Table 12, V052977, genotype 10I + 33F + 54M", "value": 1.8, "unit": "fold"}, {"measurement": "Fold change in IC50", "setting": "Table 12, V052978, genotype 10I + 33F + 54M + 71V + 90M", "value": 5.4, "unit": "fold"}, {"measurement": "Fold change in IC50", "setting": "Table 12, V052979, genotype 10I + 54M", "value": 1.8, "unit": "fold"}, {"measurement": "Fold change in IC50", "setting": "Table 12, V052980, genotype 10I + 54M + 90M", "value": 1.3, "unit": "fold"}, {"measurement": "Fold change in IC50", "setting": "Table 12, V052981, genotype 10I + 54M + 71V + 90M", "value": 3.2, "unit": "fold"}, {"measurement": "Fold change in IC50", "setting": "Table 12, V052982, genotype 10I + 54M + 71V + 77I + 90M", "value": 2.4, "unit": "fold"}, {"measurement": "Fold change in IC50", "setting": "Table 12, V053832, genotype 10I + 33F", "value": 0.4, "unit": "fold"}]}
